PubChem BioAssay (NCI)
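Exposure lasted 48 hours, with cells grown in 96-well plates and compounds tested at five concentrations. TGI denotes the concentration required for complete inhibition of growth.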 Where a SMILES comes first, the peptide text is derived from it.

What was measured:
Assay in all cases: NCI-60 cell line screen, 48 h
[1] = tested on: EKVX NSCLC
[2] = tested on: HOP-92 NSCLC
[3] = tested on: DU-145 prostate
[4] = tested on: M14 melanoma
[5] = tested on: HOP-62 NSCLC
[6] = tested on: MCF7 breast
[7] = tested on: RPMI-8226 leukemia
[8] = tested on: BT-549 breast
[9] = tested on: MDA-MB-435
[10] = tested on: A549 NSCLC
[11] = tested on: SF-268 CNS
[12] = tested on: SK-OV-3 ovarian
[13] = tested on: CAKI-1 renal
[14] = tested on: MALME-3M melanoma
[15] = tested on: NCI-H23 lung
[16] = tested on: SNB-75 CNS
[17] = tested on: NCI-H226 lung
[18] = tested on: SR leukemia
[19] = tested on: COLO 205 colon
[20] = tested on: SK-MEL-28 melanoma
[21] = tested on: MOLT-4 leukemia
[22] = tested on: K-562 leukemia
[23] = tested on: MDA-MB-231 breast
[24] = tested on: LOX IMVI melanoma
[25] = tested on: ACHN renal
[26] = tested on: SW-620 colon
[27] = tested on: NCI-H460 lung
[28] = tested on: SK-MEL-5 melanoma
[29] = tested on: IGROV1 ovarian
[30] = tested on: TK-10 renal
[31] = tested on: 786-0 renal
[32] = tested on: HL-60(TB) leukemia
[33] = tested on: PC-3 prostate
[34] = tested on: KM12 colon
[35] = tested on: RXF 393 renal
[36] = tested on: SF-295 CNS
[37] = tested on: U251 CNS
[38] = tested on: MDA-N
[39] = tested on: SNB-19 CNS
[40] = tested on: HT29 colon
[41] = tested on: SN12C renal
[42] = tested on: OVCAR-5 ovarian
[43] = tested on: UACC-257 melanoma
[44] = tested on: T-47D breast
[45] = tested on: UO-31 renal
[46] = tested on: HS 578T breast
[47] = tested on: UACC-62 melanoma
[48] = tested on: HCT-15 colon
[49] = tested on: OVCAR-4 ovarian
[50] = tested on: CCRF-CEM leukemia
[51] = tested on: NCI-H522 lung
[52] = tested on: OVCAR-3 ovarian
[53] = tested on: NCI/ADR-RES ovarian
[54] = tested on: HCC-2998 colon
[55] = tested on: OVCAR-8 ovarian
[56] = tested on: SF-539 CNS
[57] = tested on: HCT-116 colon
[58] = tested on: SK-MEL-2 melanoma

Structure (SMILES): COC(=O)[C@@]12CN(C)[C@@H](C(C)(C)C)N1C(=O)OC2c1ccccc1 (some centres undefined)
- TGI [1]: > 100 µM
- TGI [2]: > 100 µM
- TGI [3]: > 100 µM
- TGI [4]: > 100 µM
- TGI [5]: > 100 µM
- TGI [6]: > 100 µM
- TGI [7]: > 100 µM
- TGI [8]: > 100 µM
- TGI [9]: > 100 µM
- TGI [10]: > 100 µM
- TGI [11]: > 100 µM
- TGI [12]: > 100 µM
- TGI [13]: > 100 µM
- TGI [14]: > 100 µM
- TGI [15]: > 100 µM
- TGI [16]: > 100 µM
- TGI [17]: > 100 µM
- TGI [18]: > 100 µM
- TGI [19]: > 100 µM
- TGI [20]: > 100 µM
- TGI [21]: > 100 µM
- TGI [22]: > 100 µM
- TGI [23]: > 100 µM
- TGI [24]: > 100 µM
- TGI [25]: > 100 µM
- TGI [26]: > 100 µM
- TGI [27]: > 100 µM
- TGI [28]: > 100 µM
- TGI [29]: > 100 µM
- TGI [30]: > 100 µM
- TGI [31]: > 100 µM
- TGI [32]: > 100 µM
- TGI [33]: > 100 µM
- TGI [34]: > 100 µM
- TGI [35]: > 100 µM
- TGI [36]: > 100 µM
- TGI [37]: > 100 µM
- TGI [38]: > 100 µM
- TGI [39]: > 100 µM
- TGI [40]: > 100 µM
- TGI [41]: > 100 µM
- TGI [42]: > 100 µM
- TGI [43]: > 100 µM
- TGI [44]: > 100 µM
- TGI [45]: > 100 µM
- TGI [46]: > 100 µM
- TGI [47]: > 100 µM
- TGI [48]: > 100 µM
- TGI [49]: > 100 µM
- TGI [50]: > 100 µM
- TGI [51]: > 100 µM
- TGI [52]: > 100 µM
- TGI [53]: > 100 µM
- TGI [54]: > 100 µM
- TGI [55]: > 100 µM
- TGI [56]: > 100 µM

Structure (SMILES): CCC(C)C(NC(=O)C(NC(=O)C(CC(N)=O)NC(=O)CN)C(C)O)C(=O)NC(C(=O)NC(C)C(=O)NC(C(=O)NC(CCC(=O)O)C(=O)NC(CC(C)C)C(=O)NC(CC(=O)O)C(=O)NC(C(=O)NC(Cc1ccc(O)cc1)C(=O)N1CCCC1C(=O)O)C(C)O)C(C)C)C(C)C (centres undefined) (H-GNTIVAVELDTYP-OH; configuration not given here)
- TGI [1]: > 50 µM
- TGI [2]: > 50 µM
- TGI [57]: > 50 µM
- TGI [3]: > 50 µM
- TGI [4]: > 50 µM
- TGI [5]: > 50 µM
- TGI [6]: > 50 µM
- TGI [7]: > 50 µM
- TGI [8]: > 50 µM
- TGI [9]: > 50 µM
- TGI [58]: > 50 µM
- TGI [10]: > 50 µM
- TGI [11]: > 50 µM
- TGI [12]: > 50 µM
- TGI [13]: > 50 µM
- TGI [14]: > 50 µM
- TGI [15]: > 50 µM
- TGI [16]: > 50 µM
- TGI [17]: > 50 µM
- TGI [18]: > 50 µM
- TGI [19]: > 50 µM
- TGI [20]: > 50 µM
- TGI [21]: > 50 µM
- TGI [22]: > 50 µM
- TGI [23]: > 50 µM
- TGI [24]: > 50 µM
- TGI [25]: > 50 µM
- TGI [26]: > 50 µM
- TGI [27]: > 50 µM
- TGI [28]: > 50 µM
- TGI [29]: > 50 µM
- TGI [30]: > 50 µM
- TGI [31]: > 50 µM
- TGI [32]: > 50 µM
- TGI [33]: > 50 µM
- TGI [34]: > 50 µM
- TGI [35]: > 50 µM
- TGI [36]: > 50 µM
- TGI [37]: > 50 µM
- TGI [38]: > 50 µM
- TGI [39]: > 50 µM
- TGI [40]: > 50 µM
- TGI [41]: > 50 µM
- TGI [42]: > 50 µM
- TGI [43]: > 50 µM
- TGI [44]: > 50 µM
- TGI [45]: > 50 µM
- TGI [46]: > 50 µM
- TGI [47]: > 50 µM
- TGI [48]: > 50 µM
- TGI [49]: > 50 µM
- TGI [50]: > 50 µM
- TGI [51]: > 50 µM
- TGI [52]: > 50 µM
- TGI [53]: > 50 µM
- TGI [54]: > 50 µM
- TGI [55]: > 50 µM
- TGI [56]: > 50 µM
